# From ChEMBL document CHEMBL5331122, “Structure-Activity Relationship Study of Antimicrobial Peptide PE2 Delivered Novel Linear Derivatives with Potential of Eradicating Biofilms and Low Incidence of Drug Resistance” (J Med Chem, 2023)
# Calls of active or inactive are those of the source. The calls are words filed in the database; no cut-off is given here.
# Tests used:
# Klebsiella pneumoniae [1] = assay: Antibacterial activity against Klebsiella pneumoniae ATCC 700603 infected in BALB/c mouse pneumonia model assessed as reduction in infiltration of inflammatory cells at 10 mg/kg, ip measured at 4 to 12 hrs by hematoxylin and eosin staining based analysis; assay type: functional, organism-based; details: time 4-12 hrs
# Pseudomonas aeruginosa [2] = assay: Antimicrobial activity against Pseudomonas aeruginosa 124 assessed as inhibition of microbial growth incubated for 18 hrs by broth microdilution analysis; assay type: functional, organism-based; details: Pseudomonas aeruginosa, 124, 18 h
# Pseudomonas aeruginosa [3] = assay: Antimicrobial activity against Pseudomonas aeruginosa 86 assessed as inhibition of microbial growth incubated for 18 hrs by broth microdilution analysis; assay type: functional, organism-based; details: Pseudomonas aeruginosa, 86, 18 h
# Staphylococcus aureus [4] = assay: Antibacterial activity against gentamycin-resistant Staphylococcus aureus ATCC 25923 assessed as reduction in bacterial growth incubated for 18 hrs by broth microdilution method; assay type: functional
# Escherichia coli [5] = assay: Antimicrobial activity against Escherichia coli 804 assessed as inhibition of microbial growth incubated for 18 hrs by broth microdilution analysis; assay type: functional, organism-based; details: Escherichia coli, 804, 18 h
# Staphylococcus aureus [6] = assay: Antimicrobial activity against methicillin-resistant Staphylococcus aureus 936 assessed as inhibition of microbial growth incubated for 18 hrs by broth microdilution analysis; assay type: functional, organism-based; details: Staphylococcus aureus, 936, 18 h
# Escherichia coli [7] = assay: Antimicrobial activity against Escherichia coli 780 assessed as inhibition of microbial growth incubated for 18 hrs by broth microdilution analysis; assay type: functional, organism-based; details: Escherichia coli, 780, 18 h
# Staphylococcus aureus [8] = assay: Antimicrobial activity against methicillin-resistant Staphylococcus aureus 74 assessed as inhibition of microbial growth incubated for 18 hrs by broth microdilution analysis; assay type: functional, organism-based; details: Staphylococcus aureus, 74, 18 h
# [9] = Hemolytic activity in mouse red blood cells assessed as hemolysis at 128 microg/ml incubated for 1 hr relative to control; assay type: toxicity, cell-based, Erythrocyte; details: red blood cells (erythrocytes), read-out: Activity
# Staphylococcus aureus [10] = assay: Bactericidal activity against Staphylococcus aureus ATCC 25923 assessed as inhibition of bacterial growth at 2 times MIC measured upto 360 mins by time-kill assay; assay type: functional, organism-based
# Escherichia coli [11] = assay: Antimicrobial activity against Escherichia coli ATCC 25922 assessed as reduction in microbial growth measured for 18 hrs in presence of […] microg/ml LPS; assay type: functional, organism-based
# Staphylococcus aureus [12] = assay: Bactericidal activity against Staphylococcus aureus ATCC 25923 assessed as inhibition of bacterial growth at 2 times MIC measured at 30 mins by time-kill assay; assay type: functional, organism-based
# Staphylococcus aureus [13] = assay: Antimicrobial activity against methicillin-resistant Staphylococcus aureus 48 assessed as inhibition of microbial growth incubated for 18 hrs by broth microdilution analysis; assay type: functional, organism-based; details: Staphylococcus aureus, 48, 18 h
# Staphylococcus aureus [14] = assay: Antimicrobial activity against methicillin-resistant Staphylococcus aureus 52 assessed as inhibition of microbial growth incubated for 18 hrs by broth microdilution analysis; assay type: functional, organism-based; details: Staphylococcus aureus, 52, 18 h
# Escherichia coli [15] = assay: Antimicrobial activity against Escherichia coli 850 assessed as inhibition of microbial growth incubated for 18 hrs by broth microdilution analysis; assay type: functional, organism-based; details: Escherichia coli, 850, 18 h
# Staphylococcus aureus [16] = assay: Antimicrobial activity against methicillin-resistant Staphylococcus aureus 54 assessed as inhibition of microbial growth incubated for 18 hrs by broth microdilution analysis; assay type: functional, organism-based; details: Staphylococcus aureus, 54, 18 h
# Pseudomonas aeruginosa [17] = assay: Antimicrobial activity against Pseudomonas aeruginosa 119 assessed as inhibition of microbial growth incubated for 18 hrs by broth microdilution analysis; assay type: functional, organism-based; details: Pseudomonas aeruginosa, 119, 18 h
# Klebsiella pneumoniae [18] = assay: Antibacterial activity against Klebsiella pneumoniae ATCC 700603 infected in BALB/c mouse pneumonia model assessed as alveolar expansion at 10 mg/kg, ip measured at 4 to 12 hrs by hematoxylin and eosin staining based analysis; assay type: functional, organism-based; details: time 4-12 hrs
# Escherichia coli [19] = assay: Additive antibacterial activity against rifampicin-resistant Escherichia coli ATCC 25922 incubated for 18 hrs by checkerboard assay; assay type: functional, organism-based
# [20] = Acute toxicity in Kunming mouse assessed as survival rate at 20 to 80 mg/kg, ip measured after 4 hrs; assay type: organism-based; details: in vivo, dose 20-80 mg/kg
# Staphylococcus aureus [21] = assay: Bactericidal activity against Staphylococcus aureus ATCC 25923 assessed as inhibition of bacterial growth at 2 times MIC measured at 120 mins by time-kill assay; assay type: functional, organism-based
# [22] = Acute toxicity in Kunming mouse assessed as survival rate at 20 to 60 mg/kg, ip measured after 4 hrs; assay type: organism-based; details: in vivo, dose 20-60 mg/kg
# Escherichia coli [23] = assay: Synergistic antibacterial activity against Escherichia coli ATCC 25922 assessed as fractional inhibitory concentration index incubated for 18 hrs in presence of rifampicin by checkerboard assay; assay type: functional
# Escherichia coli [24] = assay: Synergistic antibacterial activity against Escherichia coli ATCC 25922 assessed as fractional inhibitory concentration index incubated for 18 hrs in presence of gentamycin by checkerboard assay; assay type: functional
# [25] = Hemolytic activity in mouse red blood cells assessed as hemolysis at 256 microg/ml incubated for 1 hr relative to control; assay type: toxicity, cell-based, Erythrocyte; details: red blood cells (erythrocytes), at 256 µg/mL, read-out: Activity
# Staphylococcus aureus [26] = assay: Bactericidal activity against Staphylococcus aureus ATCC 25923 assessed as inhibition of bacterial growth at 0.5 to 2 times MIC measured at 180 mins by time-kill assay; assay type: functional, organism-based
# Escherichia coli [27] = assay: Synergistic antibacterial activity against Escherichia coli ATCC 25922 assessed as fractional inhibitory concentration index incubated for 18 hrs in presence of PMB by checkerboard assay; assay type: functional
# Escherichia coli [28] = assay: Bactericidal activity against Escherichia coli ATCC 25922 assessed as inhibition of bacterial growth at 1 times MIC measured at 120 mins by time-kill assay; assay type: functional, organism-based
# Staphylococcus aureus [29] = assay: Bactericidal activity against Staphylococcus aureus ATCC 25923 assessed as inhibition of bacterial growth at 2 times MIC measured at 60 mins by time-kill assay; assay type: functional, organism-based
# Escherichia coli [30] = assay: Bactericidal activity against Escherichia coli ATCC 25922 assessed as inhibition of bacterial growth at 0.5 to 2 times MIC measured at 90 mins by time-kill assay; assay type: functional, organism-based
smiles,measurement,setting,value
CCCCCCCC(=O)N[C@@H](CCN)C(=O)N[C@H](C(=O)N[C@@H](CCN)C(=O)N[C@H](Cc1ccccc1)C(=O)N[C@@H](CC(C)C)C(=O)N[C@@H](CCN)C(=O)N[C@@H](C(=O)N[C@@H](CC(C)C)C(=O)N[C@@H](Cc1ccc(O)cc1)C(N)=O)C(C)C)[C@@H](C)CC,Activity,Klebsiella pneumoniae [1],Active
same,EC50,Pseudomonas aeruginosa [2],2.76 mg/L
same,EC50,Pseudomonas aeruginosa [3],2.08 mg/L
same,MIC,Staphylococcus aureus [4],8 mg/L
same,EC50,Escherichia coli [5],2.36 mg/L
same,EC50,Staphylococcus aureus [6],6.12 mg/L
same,EC50,Escherichia coli [7],2.55 mg/L
same,EC50,Staphylococcus aureus [8],5.1 mg/L
same,"hemolysis at 1 h, 128 µg/mL",[9],10%
same,Activity,Staphylococcus aureus [10],Active
same,Activity,Escherichia coli [11],Active
same,Activity,Staphylococcus aureus [12],Active
same,EC50,Staphylococcus aureus [13],5.48 mg/L
same,EC50,Staphylococcus aureus [14],4.46 mg/L
same,EC50,Escherichia coli [15],2.42 mg/L
same,EC50,Staphylococcus aureus [16],4.33 mg/L
same,EC50,Pseudomonas aeruginosa [17],2.31 mg/L
same,Activity,Klebsiella pneumoniae [18],Active
same,Activity,Escherichia coli [19],Active
same,Activity,[20],Toxic
CCCCCCC(=O)N[C@@H](CCN)C(=O)N[C@H](C(=O)N[C@@H](CCN)C(=O)N[C@H](Cc1ccccc1)C(=O)N[C@@H](CC(C)C)C(=O)N[C@@H](CCN)C(=O)N[C@@H](C(=O)N[C@@H](CC(C)C)C(=O)N[C@@H](Cc1ccc(O)cc1)C(N)=O)C(C)C)[C@@H](C)CC,Activity,Staphylococcus aureus [21],Active
same,Activity,[22],Toxic
same,fractional inhibitory concentration index (FICI),Escherichia coli [23],0.312
same,fractional inhibitory concentration index (FICI),Escherichia coli [24],0.5
same,MIC,Staphylococcus aureus [4],8 mg/L
same,"hemolysis at 1 h, 256 µg/mL",[25],< 10%
same,Activity,Staphylococcus aureus [26],Active
same,fractional inhibitory concentration index (FICI),Escherichia coli [27],0.312
same,Activity,Escherichia coli [19],Active
CC[C@H](C)[C@@H]1NC(=O)[C@H](CCN)NC(=O)C[C@@H](C(C)C)OC(=O)[C@H]([C@@H](C)O)NC(=O)[C@H](CC(C)C)NC(=O)[C@@H](C(C)C)NC(=O)[C@H](CCN)NC(=O)[C@H](CC(C)C)NC(=O)[C@@H](Cc2ccccc2)NC(=O)[C@H](CCN)NC1=O,Activity,Escherichia coli [28],Active
same,Activity,Staphylococcus aureus [29],Active
same,Activity,Escherichia coli [30],Active
